{
  "source": "patent US20200179285A1",
  "about": "“BIODEGRADABLE MICROPARTICLES FOR SUSTAINED DELIVERY OF ANTI-ANGIOGENIC PEPTIDE” (The Johns Hopkins University, priority 2017, published 2020)",
  "tested_on": "VEGF-induced vascular leakage",
  "assay": "VEGF-induced vascular leakage in rabbit eyes",
  "format": "in vivo",
  "conditions": "single injection, day 60, FIG. 4G",
  "data": [
    {"substance": "aflibercept", "values": [
      {"measurement": "activity against VEGF-induced vascular leakage", "value": "no longer showed activity"}
    ]}
  ]
}
